{"source": "paper PMC9714921", "about": "(PLOS Pathogens, 2022)", "key": {"Gpu-ACR-16": {"test_system": "Gpu-ACR-16", "test": "Voltage-clamp electrophysiology, N-AChR reconstituted in Xenopus laevis oocytes", "format": "cell-based, Gonglyonema pulchrum", "protocol": "(§1) cRNA for oocyte injection was prepared with the mMESSAGE mMACHINE T7 kit following manufacturers protocol (Ambion, USA). Concentration was determined using a Nanodrop spectrophotometer. Desired subunit combinations with associated accessory proteins were mixed and diluted with nuclease-free water to a final concentration of 250 ng/uL for each construct.\n(§2) Adult female X. laevis oocyte extraction was performed in accordance with the McGill University Animal Use Protocol 2015–7758 following standard protocol. Briefly, frog ovary lobes were placed in a Ca^2+-free OR2 solution (82 mM NaCl, 2 mM KCl, 1 mM MgCl2, 5 mM HEPES buffer, pH 7.3) and manually divided into clusters of <10 oocytes with thin tweezers followed by a 90-minute incubation in 10 mg/mL collagenase type II (Sigma-Aldrich, USA). Oocytes were washed in Ca^2+-free OR2 and placed ND96 solution (NaCl 96 mM, KCl 2 mM, CaCl2 1.8 mM, MgCl2 1 mM and HEPES 5 mM, pH 7.3) supplemented with sodium pyruvate 2.5 mM [86] and incubated at 18°C until cRNA injection. Oocytes were injected with 50 nL (12.5 ng of each injected gene) of the desired cRNA subunit and accessory protein combination mix with the NanojectII (Drummond Scientific, USA). Following injection, oocytes were incubated in ND96 buffer at 18°C until electrophysiology. All electrophysiology was conducted two days post-injection, except for the expression analysis assay in which oocytes were measured every day after injection for three consecutive days.\n(§3) All drugs were dissolved in recording solution (NaCl 100 mM, KCl 2.5 mM, CaCl2 1 mM, HEPES 5 mM, pH 7.3) to a stock concentration of 10 mM and diluted to their final recording concentrations. Oxantel and bephenium were first dissolved in DMSO to ensure a final recording concentration contained less than 0.1% DMSO. For agonist profiling, all drugs were diluted to a concentration of 100 μM.\n(§4) Oocytes were placed individually in an RC3Z chamber (Harvard Apparatus, USA) submerged in recording solution (NaCl 100 mM, KCl 2.5 mM, CaCl2 1 mM, HEPES 5 mM, pH 7.3). The RC3Z chamber was connected to a perfusion system containing recording solution and ligand solutions. Pulled glass capillaries (World Precision Instruments, USA) were filled with 3M KCl and the tips clipped and checked for appropriate resistance (between 0.5 and 5 MΩ). A 3M KCl agar bridge grounded the oocyte bath chamber. Measurements were made using an Axon Axoclamp 900A amplifier with Digidata1550M. […] Ligand solutions were applied to the oocytes with an approximate flow rate of 1.2 m/s and current responses measured. Oocytes were exposed to the ligand solution until a distinct current peak was observed followed by a wash with the recording solution until current returned to baseline for a minimum of 10 seconds until the next ligand exposure. For BAPTA-AM exposed oocytes, oocytes were incubated in 100 μM BAPTA-AM for four hours prior to electrophysiology recording. Data was analyzed using Clampex 9.2 (Axon Instruments, USA) and statistical analysis and graphs produced in Prism (GraphPad version 9.1). T-tests were used to compare responses with error bars representing standard error. For concentration-response curves, individual oocyte current response to the different ligand concentrations were normalized to the response obtained with 300 μM. Data was fit using the Graphpad “log(agonist) vs normalized response–variable slope” equation, with 95% confidence intervals being reported. […] For examples of oocyte responses, recordings were filtered in Clampfit using the lowband pass at 40 Hz cutoff."}, "Bma-ACR-16": {"test_system": "Bma-ACR-16", "format": "cell-based, Brugia malayi", "protocol": "as §1, §2, §3, §4"}, "C. elegans N-AChR": {"test_system": "C. elegans N-AChR", "parameters": "method as in Charvet et al., 2018 [40]", "details": "read-out: EC50 μM ACh; accessory protein Ric-3; ref Charvet et al., 2018 [40]; cited from earlier work"}, "N. americanus N-AChR": {"test_system": "N. americanus N-AChR", "details": "read-out: EC50 μM ACh; accessory protein Ric-3; ref [33]; cited from earlier work"}, "[1]": {"details": "co-injected: Bma-ric-3 (reference condition)"}, "[2]": {"details": "co-injected: Bma-ric-3 + Bma-eat-18"}, "[3]": {"details": "co-injected: Bma-ric-3 + Bma-molo-1"}, "[4]": {"details": "co-injected: Bma-ric-3 + Bma-unc-50 + Bma-unc-74"}, "[5]": {"details": "co-injected: Bma-ric-3 + Bma-unc-50 + Bma-unc-74 + Bma-eat-18"}, "[6]": {"details": "co-injected: Bma-ric-3 + Cel-emc-6"}, "[7]": {"details": "co-injected: Bma-ric-3 + Cel-nra-2 + Cel-nra-4, listed as acetylcholine"}, "[8]": {"details": "co-injected: Hco-ric-3, listed as acetylcholine"}}, "note": "“And” between values parts separate entries of the source, which are not always exact repeats. Equal values may be shown once. “Also recorded” adds a separate entry of the source. Read-outs that look alike come from different tables or passages of the source.", "data": [{"compound": "CC(=O)OCC[N+](C)(C)C", "note": "[ACh, acetylcholine]", "values": [{"measurement": "response to 100 μM acetylcholine normalized to Day 3 response", "setting": "Gpu-ACR-16; Day 1 post-injection", "result": "19 ± 6", "unit": "%"}, {"measurement": "response to 100 μM acetylcholine normalized to Day 3 response", "setting": "Gpu-ACR-16; Day 2 post-injection", "result": "76 ± 6", "unit": "%"}, {"measurement": "current response to 100 μM acetylcholine", "setting": "Gpu-ACR-16; No accessory protein", "result": "0 ± 0", "unit": "nA"}, {"measurement": "current response to 100 μM acetylcholine", "setting": "Gpu-ACR-16; No accessory protein, listed as acetylcholine", "result": "0 ± 0 (n=14) nA"}, {"measurement": "current response to 100 μM acetylcholine", "setting": "Gpu-ACR-16; [1]", "result": "1281 ± 197", "unit": "nA"}, {"measurement": "current response to 100 μM acetylcholine", "setting": "Gpu-ACR-16; co-injected: Bma-ric-3 (reference condition), listed as acetylcholine", "result": "1281 ± 197 (n=8) nA"}, {"measurement": "current response to 100 μM acetylcholine", "setting": "Gpu-ACR-16; [2]", "result": "1264 ± 177 (n=10) ns nA"}, {"measurement": "current response to 100 μM acetylcholine", "setting": "Gpu-ACR-16; [3]", "result": "1049 ± 77 (n=16) ns nA"}, {"measurement": "current response to 100 μM acetylcholine", "setting": "Gpu-ACR-16; [4]", "result": "847 ± 124 (n=14) ns nA"}, {"measurement": "current response to 100 μM acetylcholine", "setting": "Gpu-ACR-16; [5]", "result": "1854 ± 83", "unit": "nA"}, {"measurement": "current response to 100 μM acetylcholine", "setting": "Gpu-ACR-16; co-injected: Bma-ric-3 + Bma-unc-50 + Bma-unc-74 + Bma-eat-18, listed as acetylcholine", "result": "1854 ± 83 (n=14) nA"}, {"measurement": "current response to 100 μM acetylcholine", "setting": "Gpu-ACR-16; [6]", "result": "1628 ± 123 (n=17) ns nA"}, {"measurement": "current response to 100 μM acetylcholine", "setting": "Gpu-ACR-16; co-injected: Bma-ric-3 + Cel-nra-2 + Cel-nra-4", "result": "2553 ± 123", "unit": "nA"}, {"measurement": "current response to 100 μM acetylcholine", "setting": "Gpu-ACR-16; [7]", "result": "2553 ±123 (n=12) nA"}, {"measurement": "current response to 100 μM acetylcholine", "setting": "Gpu-ACR-16; co-injected: Hco-ric-3", "result": "~ 1400 nA"}, {"measurement": "current response to 100 μM acetylcholine", "setting": "Gpu-ACR-16; [8]", "result": "1403 ± 91 nA and 1403 ± 91 (n=14) ns nA"}, {"measurement": "EC50", "setting": "Gpu-ACR-16; read-out: EC50 ACh, concentration-response 0.3-300 μM, normalized to 300 μM, with 95% CI", "result": 10.5, "unit": "µM"}, {"measurement": "current response to 100 μM acetylcholine", "setting": "Bma-ACR-16; No accessory protein", "result": "0 ± 0 (n=12) nA"}, {"measurement": "current response to 100 μM acetylcholine", "setting": "Bma-ACR-16; [1]", "result": "no responses and 0 ± 0 (n=8) nA"}, {"measurement": "current response to 100 μM acetylcholine", "setting": "Bma-ACR-16; [2]", "result": "0± 0 (n=10) nA"}, {"measurement": "current response to 100 μM acetylcholine", "setting": "Bma-ACR-16; co-injected: Bma-ric-3 + Bma-emc-6 + Cel-nra-2 + Cel-nra-4", "result": "11 ± 9", "unit": "nA"}, {"measurement": "current response to 100 μM acetylcholine", "setting": "Bma-ACR-16; co-injected: Bma-ric-3 + Bma-emc-6 + Cel-nra-2 + Cel-nra-4 + Bma-eat-18", "result": "2 ± 1", "unit": "nA"}, {"measurement": "current response to 100 μM acetylcholine", "setting": "Bma-ACR-16; co-injected: Bma-ric-3 + Bma-emc-6 + Cel-nra-2 + Cel-nra-4 + Bma-eat-18 + Bma-unc-50 + Bma-unc-74", "result": "0 ± 0", "unit": "nA"}, {"measurement": "current response to 100 μM acetylcholine", "setting": "Bma-ACR-16; co-injected: Bma-ric-3 + Bma-emc-6 + Cel-nra-2 + Cel-nra-4 + Bma-eat-18 + Bma-unc-50 + Bma-unc-74, listed as acetylcholine", "result": "0 ± 0 (n=11) nA"}, {"measurement": "current response to 100 μM acetylcholine", "setting": "Bma-ACR-16; co-injected: Bma-ric-3 + Bma-emc-6 + Cel-nra-2 + Cel-nra-4 + Bma-eat-18, listed as acetylcholine", "result": "2 ± 1 (n=12) ns nA"}, {"measurement": "current response to 100 μM acetylcholine", "setting": "Bma-ACR-16; co-injected: Bma-ric-3 + Bma-emc-6 + Cel-nra-2 + Cel-nra-4, listed as acetylcholine", "result": "11 ± 9 (n=11) ns nA"}, {"measurement": "current response to 100 μM acetylcholine", "setting": "Bma-ACR-16; [3]", "result": "0 ± 0 (n=16) nA"}, {"measurement": "current response to 100 μM acetylcholine", "setting": "Bma-ACR-16; [4]", "result": "0 ± 0 (n=5) nA"}, {"measurement": "current response to 100 μM acetylcholine", "setting": "Bma-ACR-16; [5]", "result": "0 ± 0 (n=13) nA"}, {"measurement": "current response to 100 μM acetylcholine", "setting": "Bma-ACR-16; [6]", "result": "17 ± 4 nA and 17 ± 4 (n=13) nA"}, {"measurement": "current response to 100 μM acetylcholine", "setting": "Bma-ACR-16; co-injected: Bma-ric-3 + Cel-nra-2", "result": "33 ± 9", "unit": "nA"}, {"measurement": "current response to 100 μM acetylcholine", "setting": "Bma-ACR-16; [7]", "result": "4 ± 2 nA and 4 ± 2 (n=12) nA"}, {"measurement": "current response to 100 μM acetylcholine", "setting": "Bma-ACR-16; co-injected: Bma-ric-3 + Cel-nra-2, listed as acetylcholine", "result": "33 ± 9 (n=14) nA"}, {"measurement": "current response to 100 μM acetylcholine", "setting": "Bma-ACR-16; co-injected: Bma-ric-3 + Cel-nra-4", "result": "31 ±13", "unit": "nA"}, {"measurement": "current response to 100 μM acetylcholine", "setting": "Bma-ACR-16; co-injected: Bma-ric-3 + Cel-nra-4, listed as acetylcholine", "result": "31 ± 13 (n=12) ns nA"}, {"measurement": "current response to 100 μM acetylcholine", "setting": "Bma-ACR-16; co-injected: Hco-ric-3", "result": "no measurable current; also recorded: no responses"}, {"measurement": "current response to 100 μM acetylcholine", "setting": "Bma-ACR-16; [8]", "result": "0 ± 0 nA and 0 ± 0 (n=12) nA"}, {"measurement": "EC50", "setting": "C. elegans N-AChR", "result": "22 ± 1.2", "unit": "µM"}, {"measurement": "EC50", "setting": "N. americanus N-AChR", "result": "170 ± 19.2", "unit": "µM"}]}]}
